Measurements published in US20100028485A1, “TALAROMYCES EMERSONII ENZYME SYSTEMS” (priority 2006, published 2010).
“Also recorded” adds a separate entry of the source.

Legend:
Assay type in all cases: biochemical, Talaromyces emersonii
EG V = experiment: Effects of metal ions, chemical modification reagents, detergents and potential inhibitors on EG V; conditions: for EG V activity, Enzyme + reagent (control = 100.0): Preincubation of enzyme with reagent for 30 min (50 C) prior to addition of substrate; for EG V activity, Substrate + reagent (control = 100.0): Preincubation of substrate with reagent for 30 min (50 C) prior to addition of enzyme
Description: (§1) Substrate specificity on various polysaccharides and synthetic glycosides was evaluated by 15 measuring activity against a wide variety of carbohydrates (BBG, lichenan, CMC, other polysaccharides and synthetic glycosides) using the normal β-glucanase assay procedure. • Effects Of Metal Ions, Chemical Modification Reagents And Potential Inhibitors A range of monovalent, divalent and heavy metal ions, at final assay concentrations of 1.0 mM, were investigated for their potential effects on the activities of EG V, EG VI and EG VII, by incubating the enzymes with the chemicals and then conducting the normal enzyme assay. Finally, the inhibitor effects of glycosides, such as disaccharides, lactones and flavanoid glycosides on the purified enzymes were examined. Specified concentrations of each glycoside were included in normal assay cocktails and residual activity determined by comparison with controls (no glycoside present).
(§2) Activity was expressed as a % relative to a control (no metal ion present in incubation mixture). In general, heavy metal ions are thought to inactivate enzymes by forming covalent salts with cysteine, histidine or carboxyl groups. […] A selection of reagents known to modify amino acid R-groups in proteins were tested for their effects on EG V, EG VI and EG VII, both in the absence and presence of substrate (substrate-protective effects could be observed in this manner) (see Table 6).

EG VI = experiment: Effects of metal ions, chemical modification reagents, detergents and potential inhibitors on EG VI; conditions: for decrease in activity of EG VI: 1 mM metal ion, relative to control without metal ion; for EV VI activity, Enzyme + reagent (control = 100.0): Preincubation of enzyme with reagent for 30 min (50 C) prior to addition of substrate; for EGVI activity, Substrate + reagent (control = 100.0): Preincubation of substrate with reagent for 30 min (50 C) prior to addition of enzyme
Description: as §1, §2

EG VII = experiment: Effects of metal ions, chemical modification reagents, detergents and potential inhibitors on EG VII; conditions: for EG VII activity, Enzyme + reagent (control = 100.0): Preincubation of enzyme with reagent for 30 min (50 C) prior to addition of substrate; for EG VII activity, Substrate + reagent (control = 100.0): Preincubation of substrate with reagent for 30 min (50 C) prior to addition of enzyme
Description: as §1, §2

EG V, EG VI and EG VII = experiment: Effects of metal ions, reagents, phenolics and glycosides stated for all three enzymes; conditions: for inhibition by sulphydryl reagents: in the presence or absence of substrate; for effect of phenolic substances on enzyme activity: pre-incubation of enzyme with compound in the absence of substrate
Description: as §1, §2

SMILES	effect of metal ion on activity of all three enzymes (EG V, EG VI and EG VII; 1 mM metal ion)	EG V activity, Enzyme + reagent (control = 100.0) (EG V)	EG V activity, Substrate + reagent (control = 100.0) (EG V)	EV VI activity, Enzyme + reagent (control = 100.0) (EG VI)	EGVI activity, Substrate + reagent (control = 100.0) (EG VI)	EG VII activity, Enzyme + reagent (control = 100.0) (EG VII)	EG VII activity, Substrate + reagent (control = 100.0) (EG VII)	inhibition by sulphydryl reagents (EG V, EG VI and EG VII)	effect of phenolic substances on enzyme activity (EG V, EG VI and EG VII)	further results
[Fe+2] [Fe^2+]	markedly decreased activity									increase in activity of EG V (EG V; 1 mM metal ion, relative to control without metal ion): 20%; decrease in activity of EG VI (EG VI): 38.6%; decrease in activity of EG VI (EG VI; listed as Fe^3+): 53.6-59.3%; enhancement of EG VII activity by SO4^2− salt relative to corresponding Cl^− salt (EG VII; 1 mM): ~4.5 fold; effect of metal ion on EG VII (EG VII; 1 mM metal ion): minimum effects; decrease in activity of all three enzymes (EG V, EG VI and EG VII; 1 mM metal ion): 35.4-88.0%
NC(=O)CI [Iodoacetamide]		103.6	87.4	99.9	122.6	101.6	83.7	little or no inhibition		
[Mg+2] [Mg^2+]	enhanced the activity									decrease of EG V activity by SO4^2− salt relative to Cl^− salt of same cation (EG V; 1 mM): 54.2%; decrease of EG VI activity by SO4^2− salt relative to Cl^− salt of same cation (EG VI; 1 mM): 50.1%
O=C(O)c1cc[c]([Hg+])cc1.[OH-] [p-Hydroxymercuribenzoate]		92.8	261.7	98.3	125.0	99.5	94.8	little or no inhibition		
COc1cc(C(=O)O)cc(OC)c1O [syringic acid]									did not have a marked inhibitory effect; also recorded: markedly activated	
O=C(OC[C@H]1O[C@@H](OC(=O)c2cc(O)c(O)c(OC(=O)c3cc(O)c(O)c(O)c3)c2)[C@H](OC(=O)c2cc(O)c(O)c(OC(=O)c3cc(O)c(O)c(O)c3)c2)[C@@H](OC(=O)c2cc(O)c(O)c(OC(=O)c3cc(O)c(O)c(O)c3)c2)[C@@H]1OC(=O)c1cc(O)c(O)c(OC(=O)c2cc(O)c(O)c(O)c2)c1)c1cc(O)c(O)c(OC(=O)c2cc(O)c(O)c(O)c2)c1 [tannic acid]									potent inhibitor	
